Results from PMC9445017, “Molecular basis for polysaccharide recognition and modulated ATP hydrolysis by the O antigen ABC transporter” (Nature Communications, 2022).

Columns and labels:
[1] = biological target: T1, WzmWzt (full-length) (Aquifex aeolicus, UniProt O67181); experiment: NADH-coupled ATPase assay; format: biochemical; conditions: 1 mM ATP, 27 °C; CBD ligand, non-physiologically high concentration
T1 construct: gene abcT4; full-length wild-type transporter, Wzm2Wzt2; His-tagged (WzmWzt-His), purified as previously described; in lipid nanodiscs or DDM micelles; with O antigen ABC transporter permease Wzm (Transport permease protein)

[2] = biological target: T2, Wzt-CBD (also Wzt-CBM, WztC) (Aquifex aeolicus, UniProt O67181); experiment: isothermal titration calorimetry; format: binding; conditions: 50 mM HEPES pH 8.0, 25 °C; 1:1 per CBD monomer; read-out: affinity
T2 construct: gene abcT4; N-terminal His6-TEV tag removed; E. coli C43(DE3); domain-swapped dimer
T2 sequence (O67181 entry or part of it): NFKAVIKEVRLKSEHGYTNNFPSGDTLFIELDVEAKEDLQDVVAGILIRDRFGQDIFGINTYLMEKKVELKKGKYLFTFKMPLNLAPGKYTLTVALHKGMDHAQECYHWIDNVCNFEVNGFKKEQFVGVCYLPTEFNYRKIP

T1 sequence (O67181 entry or part of it): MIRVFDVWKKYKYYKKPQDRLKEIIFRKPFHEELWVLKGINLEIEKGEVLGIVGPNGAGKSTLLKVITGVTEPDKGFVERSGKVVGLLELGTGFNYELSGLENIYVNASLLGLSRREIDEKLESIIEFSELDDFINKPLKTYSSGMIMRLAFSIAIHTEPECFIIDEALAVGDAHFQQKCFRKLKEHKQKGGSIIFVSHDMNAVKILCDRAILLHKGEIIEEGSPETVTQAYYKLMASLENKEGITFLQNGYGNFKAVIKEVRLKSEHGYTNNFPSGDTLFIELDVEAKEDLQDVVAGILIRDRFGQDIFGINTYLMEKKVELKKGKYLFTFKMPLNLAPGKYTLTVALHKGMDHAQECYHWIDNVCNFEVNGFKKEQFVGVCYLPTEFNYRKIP
T1 sequence (O67182 entry or part of it, further chain): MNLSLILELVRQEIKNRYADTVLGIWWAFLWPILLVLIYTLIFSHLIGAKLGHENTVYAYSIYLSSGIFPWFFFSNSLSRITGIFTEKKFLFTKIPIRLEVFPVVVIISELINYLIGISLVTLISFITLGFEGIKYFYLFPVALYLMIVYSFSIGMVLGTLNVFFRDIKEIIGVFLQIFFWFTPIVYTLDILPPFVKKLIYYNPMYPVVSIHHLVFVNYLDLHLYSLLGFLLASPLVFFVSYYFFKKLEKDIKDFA

Compound: CO[C@H]1[C@H](O)[C@@H](CO)OC(O)[C@H]1O (stereo partly drawn) [3-O-methyl-D-mannose]
- % increase in ATPase activity at high concentration [1]: ~ 50%
- Kd [2]: ~234 µM
